This assay concerns Calu-1 cells. The experiment in a line: Anti-proliferation (viability) of NSCLC Calu-1 cells, 3 days (Table 7, FIG. 2B). In kind it is cell-based. The conditions noted are these: Homo sapiens, 72 h; Calu-1 cells, 3 days, 10-point serial dilution; read-out: GI IC50 in Calu-1. On the procedure: To evaluate anti-proliferation activities of heterobifunctional compounds, NSCLC Calu-1 or ER+ breast cancer T47D cells were treated with selected heterobifunctional compounds following a 10-point serial dilution for 3 or 6 days, respectively.
To verify that heterobifunctional compound-mediated degradation is dependent on the binding to CDK4-cyclin D complex, a negative control compound, CPD-143, which is derived from active heterobifunctional compound CPD-10 was designed. CPD-143 bears the same DDB1 ligand and linker as CPD-10 but with a modified warhead to impair the binding of the control compound to CDK4.

What is called IC50 is the concentration that inhibits the measured activity by half. For `[2H]C([2H])([2H])Nc1ccc(C(=O)Nc2ccc(N(C)C)nn2)c(NC2CCN(C(=O)CN3CC4(C3)CN(c3ccc(Nc5ncc6c(C)c(C(C)=O)c(=O)n(C7CCCC7)c6n5)nc3)C4)CC2)n1` [CPD-490, 2-((1-(2-(6-(6-((6-acetyl-8-cyclopentyl-5-methyl-7-oxo-7,8-dihydropyrido[2,3-d]pyrimidin-2-yl)amino)pyridin-3-yl)-2,6-diazaspiro[3.3]heptan-2-yl)acetyl)piperidin-4-yl)amino)-N-(6-(dimethylamino)pyridazin-3-yl)-6-((methyl-d3)amino)nicotinamide], the IC50 is no less than 50 nM.

As for `CC(=O)c1c(C)c2cnc(Nc3ccc(CN4CCN(CC(=O)NCC5CC(Nc6nc(NC(C)C)ccc6C(=O)Nc6ccc(N(C)C)nn6)C5)CC4)cn3)nc2n(C2CCCC2)c1=O` (stereo not shown) [CPD-493, 2-((3-((2-(4-((6-((6-acetyl-8-cyclopentyl-5-methyl-7-oxo-7,8-dihydropyrido[2,3-d]pyrimidin-2-yl)amino)pyridin-3-yl)methyl)piperazin-1-yl)acetamido)methyl)cyclobutyl)amino)-N-(6-(dimethylamino)pyridazin-3-yl)-6-(isopropylamino)nicotinamide], the IC50 is no more than 10 nM. Next, `[2H]C([2H])([2H])Nc1ccc(C(=O)Nc2ccc(N(C)C)nn2)c(NC2CC(NC(=O)N3CCC(N4CCN(c5ccc(Nc6ncc7c(C)c(C(C)=O)c(=O)n(C8CCCC8)c7n6)nc5)CC4)C3)C2)n1` (stereo not shown) [CPD-494, 2-((3-(3-(4-(6-((6-acetyl-8-cyclopentyl-5-methyl-7-oxo-7,8-dihydropyrido[2,3-d]pyrimidin-2-yl)amino)pyridin-3-yl)piperazin-1-yl)pyrrolidine-1-carboxamido)cyclobutyl)amino)-N-(6-(dimethylamino)pyridazin-3-yl)-6-((methyl-d3)amino)nicotinamide]: no less than 50 nM; `[2H]C([2H])([2H])Nc1ccc(C(=O)Nc2ccc(N(C)C)nn2)c(N[C@H]2CC[C@H](C(=O)N3CCN(Cc4ccc(Nc5ncc6c(C)c(C(C)=O)c(=O)n(C7CCCC7)c6n5)nc4)CC3)CC2)n1` [CPD-495, 2-((4-(4-((6-((6-acetyl-8-cyclopentyl-5-methyl-7-oxo-7,8-dihydropyrido[2,3-d]pyrimidin-2-yl)amino)pyridin-3-yl)methyl)piperazine-1-carbonyl)cyclohexyl)amino)-N-(6-(dimethylamino)pyridazin-3-yl)-6-((methyl-d3)amino)nicotinamide]: no less than 50 nM; `CC(=O)c1c(C)c2cnc(Nc3ccc(N4CCC5(CCN(CC(=O)NC67CC(Nc8nc(NC(C)C)ccc8C(=O)Nc8ccc(N(C)C)nn8)(C6)C7)C5)C4)cn3)nc2n(C2CCCC2)c1=O` (stereo not shown) [CPD-496, 2-((3-(2-(7-(6-((6-acetyl-8-cyclopentyl-5-methyl-7-oxo-7,8-dihydropyrido[2,3-d]pyrimidin-2-yl)amino)pyridin-3-yl)-2,7-diazaspiro[4.4]nonan-2-yl)acetamido)bicyclo[1.1.1]pentan-1-yl)amino)-N-(6-(dimethylamino)pyridazin-3-yl)-6-(isopropylamino)nicotinamide]: no more than 10 nM. Regarding `CC(=O)c1c(C)c2cnc(Nc3ccc(CN4CC5(C4)CN(C(=O)CN4CC6(CC(Nc7nc(NC(C)C)ccc7C(=O)Nc7ccc(N(C)C)nn7)C6)C4)C5)cn3)nc2n(C2CCCC2)c1=O` [CPD-497, 2-((2-(2-(6-((6-((6-acetyl-8-cyclopentyl-5-methyl-7-oxo-7,8-dihydropyrido[2,3-d]pyrimidin-2-yl)amino)pyridin-3-yl)methyl)-2,6-diazaspiro[3.3]heptan-2-yl)-2-oxoethyl)-2-azaspiro[3.3]heptan-6-yl)amino)-N-(6-(dimethylamino)pyridazin-3-yl)-6-(isopropylamino) nicotinamide], the IC50 is no less than 50 nM. `CC(=O)c1c(C)c2cnc(Nc3ccc(CN4CC5(C4)CN(C(=O)CN4CCC(Nc6nc(NC(C)C)ccc6C(=O)Nc6ccc(N(C)C)nn6)CC4)C5)cn3)nc2n(C2CCCC2)c1=O` [CPD-498, 2-((1-(2-(6-((6-((6-acetyl-8-cyclopentyl-5-methyl-7-oxo-7,8-dihydropyrido[2,3-d]pyrimidin-2-yl)amino)pyridin-3-yl)methyl)-2,6-diazaspiro[3.3]heptan-2-yl)-2-oxoethyl)piperidin-4-yl)amino)-N-(6-(dimethylamino)pyridazin-3-yl)-6-(isopropylamino)nicotinamide]: the IC50 is no less than 50 nM. Next, `COc1ccc(NC(=O)c2ccc(NC(C)C)nc2N[C@H]2CC[C@H](C(=O)N3CCC(N4CCN(c5ccc(Nc6ncc7c(C)c(C(C)=O)c(=O)n(C8CCCC8)c7n6)nc5)CC4)C3)CC2)nn1` (stereo partly drawn) [CPD-500, 2-((trans-4-(3-(4-(6-((6-acetyl-8-cyclopentyl-5-methyl-7-oxo-7,8-dihydropyrido[2,3-d]pyrimidin-2-yl)amino)pyridin-3-yl)piperazin-1-yl)pyrrolidine-1-carbonyl)cyclohexyl)amino)-6-(isopropylamino)-N-(6-methoxypyridazin-3-yl)nicotinamide]: no more than 10 nM; `CC(=O)c1c(C)c2cnc(Nc3ccc(CN4CCN(CC(=O)NC56CC(Nc7nc(NC(C)C)ccc7C(=O)Nc7ccc(N(C)C)nn7)(C5)C6)CC4)cn3)nc2n(C2CCCC2)c1=O` [CPD-502, 2-((3-(2-(4-((6-((6-acetyl-8-cyclopentyl-5-methyl-7-oxo-7,8-dihydropyrido[2,3-d]pyrimidin-2-yl)amino)pyridin-3-yl)methyl)piperazin-1-yl)acetamido)bicyclo[1.1.1]pentan-1-yl)amino)-N-(6-(dimethylamino)pyridazin-3-yl)-6-(isopropylamino)nicotinamide]: 10 to 50 nM. With `[2H]C([2H])([2H])Nc1ccc(C(=O)Nc2ccc(N(C)C)nn2)c(NC2CC3(C2)CN(CC(=O)N2CCC4(CCN(Cc5ccc(Nc6ncc7c(C)c(C(C)=O)c(=O)n(C8CCCC8)c7n6)nc5)C4)C2)C3)n1` (stereo not shown) [CPD-507, 2-((2-(2-(7-((6-((6-acetyl-8-cyclopentyl-5-methyl-7-oxo-7,8-dihydropyrido[2,3-d]pyrimidin-2-yl)amino)pyridin-3-yl)methyl)-2,7-diazaspiro[4.4]nonan-2-yl)-2-oxoethyl)-2-azaspiro[3.3]heptan-6-yl)amino)-N-(6-(dimethylamino)pyridazin-3-yl)-6-((methyl-d3)amino)nicotinamide], the IC50 is no less than 50 nM. In the case of `CC(=O)c1c(C)c2cnc(Nc3ccc(CN4CC5(CN(CC(=O)N6CC7(CC(Nc8nc(NC(C)C)ccc8C(=O)Nc8ccc(N(C)C)nn8)C7)C6)C5)C4)cn3)nc2n(C2CCCC2)c1=O` [CPD-508, 2-((2-(2-(6-((6-((6-acetyl-8-cyclopentyl-5-methyl-7-oxo-7,8-dihydropyrido[2,3-d]pyrimidin-2-yl)amino)pyridin-3-yl)methyl)-2,6-diazaspiro[3.3]heptan-2-yl)acetyl)-2-azaspiro[3.3]heptan-6-yl)amino)-N-(6-(dimethylamino)pyridazin-3-yl)-6-(isopropylamino)nicotinamide], the IC50 was no less than 50 nM.

For `CC(=O)c1c(C)c2cnc(Nc3ccc(CN4CC5(CN(CC(=O)N6CCC(Nc7nc(NC(C)C)ccc7C(=O)Nc7ccc(N(C)C)nn7)CC6)C5)C4)cn3)nc2n(C2CCCC2)c1=O` [CPD-509, 2-((1-(2-(6-((6-((6-acetyl-8-cyclopentyl-5-methyl-7-oxo-7,8-dihydropyrido[2,3-d]pyrimidin-2-yl)amino)pyridin-3-yl)methyl)-2,6-diazaspiro[3.3]heptan-2-yl)acetyl)piperidin-4-yl)amino)-N-(6-(dimethylamino)pyridazin-3-yl)-6-(isopropylamino)nicotinamide], the IC50 is no less than 50 nM. `CC(=O)c1c(C)c2cnc(Nc3ccc(CN4CCN(C5CCN(C(=O)C6CC(Nc7nc(NC(C)C)ccc7C(=O)Nc7ccc(N(C)C)nn7)C6)C5)CC4)cn3)nc2n(C2CCCC2)c1=O` (stereo not shown) [CPD-510, 2-((3-(3-(4-((6-((6-acetyl-8-cyclopentyl-5-methyl-7-oxo-7,8-dihydropyrido[2,3-d]pyrimidin-2-yl)amino)pyridin-3-yl)methyl)piperazin-1-yl)pyrrolidine-1-carbonyl)cyclobutyl)amino)-N-(6-(dimethylamino)pyridazin-3-yl)-6-(isopropylamino)nicotinamide]: the half-maximal inhibitory concentration (IC50) is no less than 50 nM. Next, `CC(=O)c1c(C)c2cnc(Nc3ccc(CN4CCN(C5CCN(C(=O)C6CCC(Nc7nc(NC(C)C)ccc7C(=O)Nc7ccc(N(C)C)nn7)C6)C5)CC4)cn3)nc2n(C2CCCC2)c1=O` (stereo not shown) [CPD-511, 2-((3-(3-(4-((6-((6-acetyl-8-cyclopentyl-5-methyl-7-oxo-7,8-dihydropyrido[2,3-d]pyrimidin-2-yl)amino)pyridin-3-yl)methyl)piperazin-1-yl)pyrrolidine-1-carbonyl)cyclopentyl)amino)-N-(6-(dimethylamino)pyridazin-3-yl)-6-(isopropylamino)nicotinamide]: no less than 50 nM. `CC(=O)c1c(C)c2cnc(Nc3ccc(CN4CCN(C5CCN(C(=O)[C@H]6CC[C@H](Nc7nc(NC(C)C)ccc7C(=O)Nc7ccc(N(C)C)nn7)CC6)C5)CC4)cn3)nc2n(C2CCCC2)c1=O` (stereo partly shown) [CPD-512, 2-((4-(3-(4-((6-((6-acetyl-8-cyclopentyl-5-methyl-7-oxo-7,8-dihydropyrido[2,3-d]pyrimidin-2-yl)amino)pyridin-3-yl)methyl)piperazin-1-yl)pyrrolidine-1-carbonyl)cyclohexyl)amino)-N-(6-(dimethylamino)pyridazin-3-yl)-6-(isopropylamino)nicotinamide]: the half-maximal inhibitory concentration (IC50) lay in the range of 10 to 50 nM.

With `CNc1ccc(C(=O)Nc2ccc(N(C)C)nn2)c(NC2CN(CC(=O)N3CCN(Cc4ccc(Nc5ncc6c(C)c(C(C)=O)c(=O)n(C7CCCC7)c6n5)nc4)CC3)C2)n1` [CPD-513, 2-((1-(2-(4-((6-((6-acetyl-8-cyclopentyl-5-methyl-7-oxo-7,8-dihydropyrido[2,3-d]pyrimidin-2-yl)amino)pyridin-3-yl)methyl)piperazin-1-yl)-2-oxoethyl)azetidin-3-yl)amino)-N-(6-(dimethylamino)pyridazin-3-yl)-6-(methylamino)nicotinamide], the IC50 was no less than 50 nM.

The values are drawn from patent US20260297081A1, “COMPOUNDS AND METHODS OF TREATING CANCERS” (Cullgen Inc., priority 2023, published 2026).
